Values after ≈ are worked out from the molar mass of the structure shown. Read-outs that look alike come from different tables or passages of the source.
How the values were obtained:
MRSA = experiment: Disk diffusion assay, zone of inhibition, MRSA; assay type: cell-based, Staphylococcus aureus; details: disk diffusion zone of inhibition
M. smegmatis (mc2155) = experiment: Disk diffusion assay, zone of inhibition, M. smegmatis; assay type: cell-based; details: disk diffusion zone of inhibition
[1] = system: S. aureus ATCC 29213 (MSSA); experiment: Broth dilution MIC, S. aureus ATCC 29213; assay type: cell-based; details: Staphylococcus aureus
[2] = system: S. aureus ATCC 33591 (MRSA); experiment: Broth dilution MIC, S. aureus ATCC 33591; assay type: cell-based; details: for MIC: Staphylococcus aureus
S. aureus BAA-39 (MDR) = experiment: Broth dilution MIC, S. aureus BAA-39; assay type: cell-based; details: for MIC: Staphylococcus aureus, BAA39
[3] = system: S. pneumoniae ATCC 6301 (PSSP); experiment: Broth dilution MIC, S. pneumoniae ATCC 6301; assay type: cell-based; details: Streptococcus pneumoniae
[4] = system: S. pneumoniae ATCC 700674 (PRSP); experiment: Broth dilution MIC, S. pneumoniae ATCC 700674; assay type: cell-based; details: Streptococcus pneumoniae
[5] = system: E. faecalis ATCC 29212 (VRE); experiment: Broth dilution MIC, E. faecalis ATCC 29212; assay type: cell-based
[6] = system: E. faecium ATCC 700221 (VRE); experiment: Broth dilution MIC, E. faecium ATCC 700221; assay type: cell-based
E. faecium CT-26 = experiment: Broth dilution MIC, E. faecium CT-26; assay type: cell-based; details: Enterococcus faecium
E. coli ECM 1694 = experiment: Broth dilution MIC, E. coli ECM 1694; assay type: cell-based; details: Escherichia coli
E. coli ATCC 25922 = experiment: Broth dilution MIC, E. coli ATCC 25922; assay type: cell-based; details: Escherichia coli
K. pneumoniae ATCC 13883 = experiment: Broth dilution MIC, K. pneumoniae ATCC 13883; assay type: cell-based; details: Klebsiella pneumoniae
K. pneumoniae ATCC 51503 = experiment: Broth dilution MIC, K. pneumoniae ATCC 51503; assay type: cell-based; details: Klebsiella pneumoniae
P. aeruginosa ATCC 9027 = experiment: Broth dilution MIC, P. aeruginosa ATCC 9027; assay type: cell-based; details: Pseudomonas aeruginosa
C. albicans ATCC 14053 = experiment: Broth dilution MIC, C. albicans ATCC 14053; assay type: cell-based; details: Candida albicans, ATCC14053; Table 1; range 64 down to 0.12 μg/ml
Method: In vitro Anti-bacterial & Anti-fungal Activity Assay: All test compounds were prepared as 6.4 mg/ml stock solutions in DMSO and further diluted according to the NCCLS M7-A6 (Page 5) document with sterile water or appropriate diluent. A working stock of 256 μg/ml was used to do 1:2 serial dilutions in 96-well plates. […] The inoculums were prepared by making a direct sterile water suspension of isolated colonies from 18 to 24 hr agar plates for all organisms (Mueller Hinton, Blood Agar or SDA plates). Each bacterial suspension was adjusted to read between 0.09 and 0.11 absorbance at 620 nm. […] These were further diluted 1/100 in appropriate broth for inoculating the 96-well plates. The C. albicans suspension was adjusted to read between 70 and 75% Transmittance at 530 nm and then diluted 1/500 in RPMI+MOPS broth. All aerobic bacterial and fungal plates were incubated for 18 hrs. at 35° C. […] Plates were read using a Beckman Automated Plate Reader at 650 nm. Readings were confirmed by visual examination of plates. (See Table 1, Table 2, Table 3, and Table 4). […] It is important to note that positive results against C. albicans are often indicative of broad spectrum antifungal activity, while negative results are not necessarily conclusory of a lack of activity against other fungus.

[7] = Table 1, range 64 down to 0.12 μg/ml, read-out: MIC S. aureus ATCC 29213
[8] = Table 2, broth dilution MIC in ug/ml, read-out: MIC S aureus ATCC 29213 MSSA
[9] = Table 1, range 64 down to 0.12 μg/ml, read-out: MIC S. aureus ATCC 33591
[10] = Table 2, broth dilution MIC in ug/ml, read-out: MIC S aureus ATCC 33591 MRSA
[11] = Table 1, range 64 down to 0.12 μg/ml, read-out: MIC S. aureus BAA-39
[12] = Table 2, broth dilution MIC in ug/ml, read-out: MIC S aureus BAA-39 MDR
[13] = ATCC6301, Table 1, range 64 down to 0.12 μg/ml, read-out: MIC S. pneumoniae ATCC 6301
[14] = ATCC6301, Table 2, broth dilution MIC in ug/ml, read-out: MIC S pneumonia ATCC 6301 PSSP
[15] = Table 1, range 64 down to 0.12 μg/ml, read-out: MIC S. pneumoniae ATCC 700674
[16] = Table 2, broth dilution MIC in ug/ml, read-out: MIC S pneumonia ATCC 700674 PRSP
[17] = Enterococcus faecalis, Table 1, range 64 down to 0.12 μg/ml, read-out: MIC E. faecalis ATCC 29212
[18] = Table 2, broth dilution MIC in ug/ml, read-out: MIC E faecalis ATCC 29212 VRE
[19] = Enterococcus faecium, Table 1, range 64 down to 0.12 μg/ml, read-out: MIC E. faecium ATCC 700221
[20] = Table 2, broth dilution MIC in ug/ml, read-out: MIC E faecium ATCC 700221 VRE
[21] = CT26, Table 1, range 64 down to 0.12 μg/ml, read-out: MIC E. faecium CT-26
[22] = CT26, Table 2, broth dilution MIC in ug/ml, read-out: MIC E faecium CT-25
[23] = ECM1694, Table 1, range 64 down to 0.12 μg/ml, read-out: MIC E. coli ECM 1694
[24] = ECM1694, Table 2, broth dilution MIC in ug/ml, read-out: MIC E. coli ECM 1693
[25] = ATCC 25921 / ATCC 25922, Table 2, broth dilution MIC in ug/ml, read-out: MIC E. coli ATCC 25921
[26] = ATCC25922, Table 1, range 64 down to 0.12 μg/ml, read-out: MIC E. coli ATCC 25922
[27] = ATCC13883, Table 1, range 64 down to 0.12 μg/ml, read-out: MIC K. pneumoniae ATCC 13883
[28] = ATCC13883, Table 2, broth dilution MIC in ug/ml, read-out: MIC K pneumonia ATCC 13883
[29] = ATCC51503, Table 1, range 64 down to 0.12 μg/ml, read-out: MIC K. pneumoniae ATCC 51503
[30] = ATCC51503, Table 2, broth dilution MIC in ug/ml, read-out: MIC K pneumonia ATCC 51503
[31] = ATCC 9026 / ATCC 9027, Table 2, broth dilution MIC in ug/ml, read-out: MIC P aeruginosa ATCC 9026
[32] = ATCC9027, Table 1, range 64 down to 0.12 μg/ml, read-out: MIC P. aeruginosa ATCC 9027

Row | SMILES | Zone Size MRSA (MRSA) [mm] | Zone Size M. smegmatis (M. smegmatis (mc2155)) [mm] | MIC [1, 7] [µg/mL] | MIC [1, 8] [µg/mL] | MIC [2, 9] [µg/mL] | MIC [2, 10] [µg/mL] | MIC (S. aureus BAA-39 (MDR); [11]) [µg/mL] | MIC (S. aureus BAA-39 (MDR); [12]) [µg/mL] | MIC [3, 13] [µg/mL] | MIC [3, 14] [µg/mL] | MIC [4, 15] [µg/mL] | MIC [4, 16] [µg/mL] | MIC [5, 17] [µg/mL] | MIC [5, 18] [µg/mL] | MIC [6, 19] [µg/mL] | MIC [6, 20] [µg/mL] | MIC (E. faecium CT-26; [21]) [µg/mL] | MIC (E. faecium CT-26; [22]) [µg/mL] | MIC (E. coli ECM 1694; [23]) [µg/mL] | MIC (E. coli ECM 1694; [24]) [µg/mL] | further results
1 | CN1CCC(Nc2ccc(-c3cc4ccc(C5=NCCN5)cc4[nH]3)cc2)CC1 [SKI-7] | 19 | 30 | 2 (≈ 5.35 µM) | 2 (≈ 5.35 µM) | 2 (≈ 5.35 µM) | 2 (≈ 5.35 µM) | 2 (≈ 5.35 µM) | 2 (≈ 5.35 µM) | 4 (≈ 10.7 µM) | 4 (≈ 10.7 µM) | 32 (≈ 85.7 µM) | 32 (≈ 85.7 µM) | 16 (≈ 42.8 µM) | 16 (≈ 42.8 µM) | 16 (≈ 42.8 µM) | 16 (≈ 42.8 µM) | 16 (≈ 42.8 µM) | 16 (≈ 42.8 µM) | 0.25 (≈ 0.669 µM) | 0.25 (≈ 0.669 µM) | MIC (E. coli ATCC 25922; [25]): 2 µg/mL (≈ 5.35 µM); MIC (E. coli ATCC 25922; [26]): 2 µg/mL (≈ 5.35 µM); MIC (K. pneumoniae ATCC 13883; [27]): > 64 µg/mL; MIC (K. pneumoniae ATCC 13883; [28]): 64 µg/mL (≈ 171 µM); MIC (K. pneumoniae ATCC 51503; [29]): > 64 µg/mL; MIC (K. pneumoniae ATCC 51503; [30]): 64 µg/mL (≈ 171 µM); MIC (P. aeruginosa ATCC 9027; [31]): 64 µg/mL (≈ 171 µM); MIC (P. aeruginosa ATCC 9027; [32]): > 64 µg/mL; MIC (C. albicans ATCC 14053): 32 µg/mL (≈ 85.7 µM)
2 | c1cnc(-c2ccc(Nc3ccc(-c4cc5ccc(C6=NCCN6)cc5[nH]4)cc3)cc2)cn1 [SKI-10] | 11 | 14.3 | 0.5 (≈ 1.16 µM) | 0.5 (≈ 1.16 µM) | 0.5 (≈ 1.16 µM) | 0.5 (≈ 1.16 µM) | 0.5 (≈ 1.16 µM) | 0.5 (≈ 1.16 µM) | ≤ 0.12 | 0.12 (≈ 0.279 µM) | ≤ 0.12 | 0.12 (≈ 0.279 µM) | 0.25 (≈ 0.581 µM) | 0.25 (≈ 0.581 µM) | ≤ 0.12 | 0.12 (≈ 0.279 µM) | ≤ 0.12 | 0.12 (≈ 0.279 µM) | 0.25 (≈ 0.581 µM) | 0.25 (≈ 0.581 µM) | MIC ([1]; Table 3, starting at 4 μg/ml, read-out: MIC S. aureus ATCC 29213): 0.5 µg/mL (≈ 1.16 µM); MIC S. aureus ATCC 33591 ([2]; Table 3, starting at 4 μg/ml): 0.5 µg/mL (≈ 1.16 µM); MIC S. aureus BAA-39 (S. aureus BAA-39 (MDR); Table 3, starting at 4 μg/ml): 0.5 µg/mL (≈ 1.16 µM); MIC ([3]; ATCC6301, Table 3, starting at 4 μg/ml, read-out: MIC S. pneumoniae ATCC 6301): 0.12 µg/mL (≈ 0.279 µM); MIC ([4]; Table 3, starting at 4 μg/ml, read-out: MIC S. pneumoniae ATCC 700674): 0.12 µg/mL (≈ 0.279 µM); MIC E. faecalis ATCC 29212 ([5]; Table 3, starting at 4 μg/ml): 0.25 µg/mL (≈ 0.581 µM); MIC ([6]; Enterococcus faecium, Table 3, starting at 4 μg/ml, read-out: MIC E. faecium ATCC 700221): 0.12 µg/mL (≈ 0.279 µM); MIC (E. faecium CT-26; CT26, Table 3, starting at 4 μg/ml, read-out: MIC E. faecium CT-26): 0.12 µg/mL (≈ 0.279 µM); MIC (E. coli ECM 1694; ECM1694, Table 3, starting at 4 μg/ml, read-out: MIC E. coli ECM 1694): 0.25 µg/mL (≈ 0.581 µM); MIC (E. coli ATCC 25922; [25]): 2 µg/mL (≈ 4.65 µM); MIC (E. coli ATCC 25922; [26]): 2 µg/mL (≈ 4.65 µM); MIC (K. pneumoniae ATCC 13883; [27]): 4 µg/mL (≈ 9.29 µM); MIC (K. pneumoniae ATCC 13883; [28]): 4 µg/mL (≈ 9.29 µM); MIC (K. pneumoniae ATCC 51503; [29]): 8 µg/mL (≈ 18.6 µM); MIC (K. pneumoniae ATCC 51503; [30]): 8 µg/mL (≈ 18.6 µM); MIC (P. aeruginosa ATCC 9027; [31]): 16 µg/mL (≈ 37.2 µM); MIC (P. aeruginosa ATCC 9027; [32]): 16 µg/mL (≈ 37.2 µM); MIC (C. albicans ATCC 14053): 8 µg/mL (≈ 18.6 µM)

— patent US20150291565A1, “INDOLE COMPOUNDS AND THEIR USE AS ANTIMICROBIALS” (Memorial Sloan-Kettering Cancer Center, priority 2012, published 2015)
